Measured values: US10898504B2, “Substituted nucleoside analogues for use as PRMT5 inhibitors” (Janssen Pharmaceutica NV, priority 2016, dated 2021)
Values joined by “and” are separate entries in the source; they are usually repeats but may differ in a detail not shown here. Equal values may be shown once.

Experiments:
A549 cells = assay: PD assay (Assay 2): inhibition of nuclear symmetric Arginine dimethylation (SYM10 immunohistochemistry) in A549 cells; format: cell-based; settings: individual measurements shown; for IC50: Homo sapiens, A549, PD assay in A549 cells, read-out: pIC50 Assay 2 (converted); for pIC50 Assay 2: PD assay in A549 cells
Protocol: EXPERIMENTAL PROCEDURE PD ASSAY (ASSAY 2)
A549 cells (ATCC, Cat #CCL-185) were cultured in Dulbecco's Modified Eagle's Medium (DMEM) (Sigma, Cat #D5796), supplemented with 10% Fetal Calf Serum (FCS)(HyClone™, Cat #SV30160.03), 100 mM Sodium Pyruvate (Sigma, Cat #S8636), 200 mM L-Glutamine (Sigma, Cat #G7513) and 50 mg/mL Gentamycing (Gibco, Cat #15750-037).
Reagents used for buffers were purchased: Dulbecco's phosphate buffered saline (DPBS) without Ca/Mg (Sigma, Cat #D8537), phosphate buffered saline (PBS) 10× (Roche, Cat #11 666 789 001), Formalin solution 10% (Sigma, HT50-1-128-4L), MeOH 100% (Sigma, Cat #32213-2.5L), Triton X-100 (Acros, Cat #215680010), Bovine Serum Albumin (BSA) (Sigma, Cat #A2153), Alexa fluor 488 goat anti-rabbit antibody (Life Technologies, Cat #A11034), HCS CellMask Deep Red Stain (Life Technologies, Cat #H32721), Hoechst Stain (Life Technologies, Cat #33258), Anti-dimethyl-Arginine, sym (SYM10) antibody (Millipore, 07-412).
Immunohistochemistry Procedure
Cells were plated at 400 cells/40 μL/well in 384 well black plates μclear bottom (Perkin Elmer) and overnight incubated at 37° C., 5% CO2. The IC50 Studies were performed using nine point dosing series ranging from 10 μM to […] for each compound. 80 nL of the respective dilution of the compounds was added using the Labcyte POD 810 (Labcyte) reaching a final DMSO concentration of 0.2% in cell culture. After an incubation period of 48 h at 37° C. and 5% CO2, cells were fixed in 10% formalin solution for 15 min at r.t. and 20 min in ice-cold MeOH, after which they were washed 3× in DPBS. Subsequently, the cells were blocked for 1 h in blocking buffer (PBS+1% BSA and 0.5% Triton X-100) and incubated overnight at 4° C. with the SYM10 antibody diluted 1/2000 in blocking buffer. The cells were washed 3× with washing buffer (PBS+0.1% Triton X-100) and incubated with the Alexa fluor 488 goat anti-rabbit antibody diluted 1/200 in blocking buffer for 1 h at r.t. Subsequently, they were washed 3× with washing buffer and incubated for 30 min at r.t. with PBS containing a 1/5000 dilution of Hoechst Stain and a 1/5000 dilution of the HCS CellMask Deep Red Stain. After a final wash with PBS, the plates were imaged using the 10×W lens of the Opera® system (Perkin Elmer Life Sciences) using following settings (values in nm):
In the above equations, the following variable names are use: […]
In the above equations, the following controls were used for normalization: […]
Low control: minimum level of symmetrically dimethylated Arginines (cells treated with reference compound at 10 μM).
High control: maximum level of symmetrically dimethylated Arginines (DMSO treated cells).
IC50 and pIC50 (−log IC50) values were calculated using the appropriate software.
pIC50 values (Co. No. means compound number; n.d. means not determined).

PRMT5-MEP50 enzyme = molecular target: T1, PRMT5-MEP50 enzyme (Homo sapiens, UniProt O14744); assay: In vitro assay (Assay 1): PRMT5-MEP50 high throughput mass spectrometer assay, inhibition of SAH formation; format: biochemical; settings: individual measurements shown, read-out: pIC50 Assay 1 (converted)
T1 construct: One virus expresses full length human PRMT5 with Flag-tag at N-terminus
T1 sequence (O14744 whole entry): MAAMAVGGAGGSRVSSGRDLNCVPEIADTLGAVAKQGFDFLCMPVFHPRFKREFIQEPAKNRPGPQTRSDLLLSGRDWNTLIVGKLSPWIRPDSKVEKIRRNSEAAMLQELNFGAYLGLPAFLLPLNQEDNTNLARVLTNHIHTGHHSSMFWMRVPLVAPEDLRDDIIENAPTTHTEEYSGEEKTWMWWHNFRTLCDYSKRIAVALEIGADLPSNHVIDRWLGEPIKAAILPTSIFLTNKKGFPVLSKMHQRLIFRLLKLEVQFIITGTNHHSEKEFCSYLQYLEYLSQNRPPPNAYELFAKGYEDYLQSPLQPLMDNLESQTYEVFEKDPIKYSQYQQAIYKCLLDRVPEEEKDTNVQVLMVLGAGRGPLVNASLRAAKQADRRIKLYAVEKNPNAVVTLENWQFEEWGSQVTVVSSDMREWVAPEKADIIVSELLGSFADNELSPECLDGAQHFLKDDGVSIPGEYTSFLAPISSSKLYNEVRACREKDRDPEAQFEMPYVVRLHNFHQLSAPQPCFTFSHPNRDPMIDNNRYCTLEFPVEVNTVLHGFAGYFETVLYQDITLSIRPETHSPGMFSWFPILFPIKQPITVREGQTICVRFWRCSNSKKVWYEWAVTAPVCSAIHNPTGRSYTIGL
T1 sequence (Q9BQA1 whole entry partner): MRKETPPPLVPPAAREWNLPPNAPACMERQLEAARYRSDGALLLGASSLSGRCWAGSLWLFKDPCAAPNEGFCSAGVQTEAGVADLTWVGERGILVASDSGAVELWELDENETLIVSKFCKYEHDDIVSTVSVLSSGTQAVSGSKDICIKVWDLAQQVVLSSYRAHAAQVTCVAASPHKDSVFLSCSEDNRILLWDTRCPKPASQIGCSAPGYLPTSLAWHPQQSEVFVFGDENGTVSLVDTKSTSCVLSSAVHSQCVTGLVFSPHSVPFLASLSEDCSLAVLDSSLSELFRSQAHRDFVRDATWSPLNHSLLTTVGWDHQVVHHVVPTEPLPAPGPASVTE
Text: EXPERIMENTAL PROCEDURES IN VITRO ASSAY (ASSAY 1)
PRMT5-MEP50 enzyme was purchased from Charles River (Argenta). The enzyme complex was produced in insect cells (Sf9) infected simultaneously with two baculoviruses. One virus expresses full length human PRMT5 with Flag-tag at N-terminus, the second virus expresses full length MEP50 with His6-TEV cleavage at N-terminus. The protein was affinity purified using anti-Flag (M2) beads eluted with 3×FLAG peptide, followed by His-Select eluted with 0.5M imidazole. Eluted protein was then dialysed against tris-buffered saline (TBS) (pH 8.0) containing 20% glycerol and 3 mM dithiothreitol (DTT).
Full-length untagged human recombinant histone H2A (residues 1-130, Genbank Accession #NM_021052, MW=14.1 kDa) expressed in E. coli was purchased from Reaction Biology Corporation, Cat #HMT-11-146. Reagents used for making reaction buffer or stopping reaction were purchased including Tris base (Sigma Cat #T-1503), NaCl (Sigma Cat #RGF-3270), MgCl2 (Sigma Cat #M0250), DTT (Invitrogen Cat #15508-013) and Formic Acid (Riedel deHaen, Cat #33015)
High Throughput Mass Spectrometer Assay
PRMT5 catalyzes the sequential methylations of the terminal nitrogen atoms on the guanidine groups of arginine residues within proteins using co-substrate S-adenosyl-L-methionine (AdoMet, SAM), forming mono-methyl (MMA), symmetric-dimethyl arginine (sDMA) and S-adenosyl-L-homocysteine (AdoHcy, SAH). The enzyme activity was determined by following the product SAH formation using high throughput mass spectrometry (Agilent Rapidfire 300 System coupled to a Sciex 4000 series QTrapm triple-quad MS/MS). The reaction buffer was 20 mM Tris-HC, pH 8.5, 50 mM NaCl, 5 mM MgCl2 and 1 mM DTT. The reaction activity was stopped using 1% formic acid (final concentration).
The IC50 Studies were performed using eleven point dosing series made for each compound by serially diluted 1:2 in dimethyl sulfoxide (DMSO), with point 12 being a DMSO control. Compounds were first spotted to plates, and followed by addition of 2 μM SAM and 0.6 μM H2A (histone H2A) solution mixture. The same volume of enzyme solution was added to initiate the enzymatic reactions. The final concentrations of the reaction are at 1 μM SAM, 0.3 μM H2A and 10 nM enzyme. The reaction was incubated at 30° C. for 60 minutes (min) and then quenched by addition of formic acid to a final concentration of 1%. The inhibitions of SAH formation in the presence of compounds were calculated as a percentage of the control relative to the uninhibited reaction as a function of inhibitor concentration. The data were fit as follows: Y=Bottom+(Top−Bottom)/(1+10^((log IC50−X)*h))
where IC50 is the inhibitor concentration (same unit as X) at 50% inhibition and h is the Hill slope. Y is percent of inhibition, X is log of compound concentration. Bottom and Top are the plateaus in same units as Y.

| Compound | IC50 (A549 cells) | IC50 (PRMT5-MEP50 enzyme) | pIC50 Assay 2 (A549 cells) |
| --- | --- | --- | --- |
| CN1CC2(CCN(C[C@H]3O[C@@H](n4cnc5c(N)ncnc54)[C@H](O)[C@@H]3O)C2)C1 [Compound 5] | > 10000 nM | 8130 nM | – |
| CN1CCC2(CCN(C[C@H]3O[C@@H](n4cnc5c(N)ncnc54)[C@H](O)[C@@H]3O)C2)C1 (stereo partly shown) [Compound 14] | > 10000 nM | 977 nM | – |
| NCC[C@@H]1CC(F)(F)CCN1C[C@H]1O[C@@H](c2ccc3c(N)ncnn23)[C@H](O)[C@@H]1O [Compound 128] | > 10000 nM | 204 nM | – |
| Nc1ncnc2c1ccn2[C@@H]1C[C@H](CC2=CCCC23CCNCC3)[C@@H](O)[C@H]1O [Compound 166] | – | 1.86 nM and 1.58 nM and 0.631 nM | 7.41 and 7.92 and 7.87 |
| Nc1ncnc2c1ccn2[C@@H]1O[C@H](CN2C(C(F)(F)F)CCC23CCNCC3)[C@@H](O)[C@H]1O (single isomer, unassigned) [Compound 116] | – | 151 nM | 5.53 |
| Nc1ncnc2c1ccn2[C@@H]1O[C@H](CN2CCOCC23CCNC3)[C@@H](O)[C@H]1O (single isomer, unassigned) [Compound 110] | > 10000 nM | 1230 nM | – |
| CN(C)CC[C@@H]1CCCN1C[C@H]1O[C@@H](n2ccc3c(N)ncnc32)[C@H](O)[C@@H]1O [Compound 187] | 1700 nM | 63.1 nM | – |
| CC(C)C(=O)O[C@@H]1[C@@H](CN2CC(F)(F)CC23CCNCC3)C[C@@H](n2ccc3c(N)ncnc32)[C@@H]1OC(=O)C(C)C [Compound 164] | ~6460 nM | > 10000 nM | – |
| Nc1ncnn2c([C@@H]3O[C@H](CN4CCOC[C@H]4CN4CCC(F)(F)C4)[C@@H](O)[C@H]3O)ccc12 [Compound 130] | > 20000 nM | > 10000 nM | – |
| NCC1CCC(F)(F)CN1C[C@H]1O[C@@H](n2ccc3c(N)ncnc32)[C@H](O)[C@@H]1O (stereo partly shown) [Compound 50] | 1510 nM | 44.7 nM | – |
| Nc1ncnn2c([C@@H]3O[C@H](C(=O)N4CCCC45CCNCC5)[C@@H](O)[C@H]3O)ccc12 [Compound 161] | 4170 nM | 380 nM | – |
| CN1CCC2(CCCN2C[C@H]2O[C@@H](n3cc(Br)c4c(N)ncnc43)[C@H](O)[C@@H]2O)CC1 [Compound 179] | 95.5 nM | 31.6 nM | – |
| NCC1CCCN(C[C@H]2O[C@@H](n3ccc4c(N)ncnc43)[C@H](O)[C@@H]2O)C1 (stereo partly shown) [Compound 51] | 1000 nM | 21.4 nM | – |
| NC[C@H]1CC(F)(F)CN1C[C@H]1O[C@@H](n2ccc3c(N)ncnc32)[C@H](O)[C@@H]1O [Compound 73b] | 2450 nM | 209 nM | – |
| Nc1ncnc2c1ccn2[C@@H]1O[C@H](CN2CCCC23CCN(Cc2nccs2)CC3)[C@@H](O)[C@H]1O [Compound 200] | > 10000 nM | 4790 nM | – |
| CC(C)C(=O)O[C@@H]1[C@H](OC(=O)C(C)C)[C@@H](CN2CCCC23CCN(C)CC3)O[C@H]1c1ccc2c(N)ncnn12 [Compound 104] | 1580 nM | > 10000 nM | – |

| Compound | IC50 (A549 cells) | IC50 (PRMT5-MEP50 enzyme) | pIC50 Assay 2 (A549 cells) |
| --- | --- | --- | --- |
| Nc1ncnc2c1ccn2[C@@H]1O[C@H](CN2CCCC23CCN(CC2OCCc4ccccc42)CC3)[C@@H](O)[C@H]1O (stereo partly shown) [Compound 201] | ~10200 nM | 457 nM | – |
| CN1CCC2(CCCN2C[C@H]2O[C@@H](n3ccc4c(Cl)ncnc43)[C@H](O)[C@@H]2O)CC1 [Compound 208] | 490 nM | 75.9 nM | – |
| Nc1ncnc2c1ccn2[C@@H]1O[C@H](CN2CCCC23CCN(C2CC2)CC3)[C@@H](O)[C@H]1O [Compound 174] | ~2290 nM | 501 nM | – |
| N#CCN1CCC2(CC1)CC(F)(F)CN2C[C@H]1O[C@@H](c2ccc3c(N)ncnn23)[C@H](O)[C@@H]1O [Compound 144] | ~933 nM | 447 nM | – |
| Nc1ncnc2c1ccn2[C@@H]1O[C@H](CN2CC(F)(F)CC23CCN(CCc2ccc(F)cc2)CC3)[C@@H](O)[C@H]1O [Compound 183] | ~240 nM | 22.4 nM | – |
| NCC1CN(C[C@H]2O[C@@H](n3ccc4c(N)ncnc43)[C@H](O)[C@@H]2O)CCO1 (stereo partly shown) [Compound 48] | ~2570 nM | 145 nM | – |
| Nc1ncnc2c1ccn2[C@@H]1O[C@H](CN2CCCCC23CCNCC3)[C@@H](O)[C@H]1O [Compound 113] | 145 nM | 8.13 nM | – |
| CN1CCC2(CCCN2C[C@H]2O[C@@H](n3ccc4c(NCCc5ccc(F)cc5)ncnc43)[C@H](O)[C@@H]2O)CC1 [Compound 204] | 1380 nM | 372 nM | – |
| CC(C)C(=O)O[C@@H]1[C@H](OC(=O)C(C)C)[C@@H](CN2CCCC23CCN(C)CC3)O[C@H]1n1ccc2c(N)ncnc21 [Compound 95b] | – | > 100000 nM | ~7.34 and 7.05 |
| CN(C)C[C@@H]1CC(F)(F)CCN1C[C@H]1O[C@@H](c2ccc3c(N)ncnn23)[C@H](O)[C@@H]1O [Compound 157] | > 20000 nM | > 10000 nM | – |
| CC(C)C(=O)O[C@@H]1[C@H](OC(=O)C(C)C)[C@@H](CN2CCCC23CCNCC3)O[C@H]1n1ccc2c(N)ncnc21 [Compound 94] | ~50.1 nM | > 10000 nM | – |
| Cc1nc(N)c2ccn([C@@H]3O[C@H](CN4CCCC45CCN(C)CC5)[C@@H](O)[C@H]3O)c2n1 [Compound 30] | 1740 nM | 200 nM | – |
| Nc1ncnc2c1ccn2[C@@H]1O[C@H](CN2CCCC23CCN(Cc2ccoc2)CC3)[C@@H](O)[C@H]1O [Compound 175] | 1410 nM | 589 nM | – |
| Nc1ncnc2c1ccn2[C@@H]1O[C@H](CN2CCCC23CCN(Cc2ccc(F)cc2)CC3)[C@@H](O)[C@H]1O [Compound 171] | ~4070 nM | 1620 nM | – |
| CC(C)C(=O)O[C@@H]1[C@H](OC(=O)C(C)C)[C@@H](CN2CCCC23CCN(C)CC3)O[C@H]1n1ccc2c(N)ncnc21 [Compound 95a] | – | > 10000 nM | 6.94 and 6.95 |
| Nc1ncnc2c1ncn2[C@@H]1O[C@H](CN2CCC23CCNC3)[C@@H](O)[C@H]1O (stereo partly shown) [Compound 87] | > 10000 nM | 2400 nM | – |
